Results: patent US9034398B2, “Traditional Chinese drug comprising Danshen extracts and Sanqi extracts and use thereof” (TASLY Pharmaceutical Group Co., LTD., priority 2009, dated 2015)

Test system: rat myocardial I/R model
Assay: RBC velocity in the venules of heart coronary vessels after myocardial I/R
Format: in vivo
Details: for inhibitory effect on the decreased RBC velocity in the venules caused by I/R: from 30 min after reperfusion
Procedure: The rats were anesthetized by intramuscularly injecting 20 wt % urethane (1.25 g/kg) and fixed in the supine position. Neck skin was incised and anterior cervical muscles were separated to expose the trachea. Tracheal intubation was performed. Another end of the intubation was attached to a Small Animal Ventilator (ALC-V8, Shanghai Aoteshai Biology Science and Technology Limited Company, Shanghai, China) so as to carry out pressure breathing under the following conditions: a respiratory ratio of 1:1, a respiratory frequency of 75 times/min and a tidal volume of 12 mL/kg. The rectal temperature, measured with YSI REF 401 (Yellow Spring, Ohio, USA), was maintained at 37 37.5° C. by using a thermal blanket. The chest was sterilized and opened at the intercostal space between 2nd 4th ribs near the left and right sternal border to expose the heart. The 3⁄8 curved needle threaded with 3-0 suture was used to pass through the site at 1 2 mm below the juncture of the pulmonary artery cone and the left atrial appendage. The suture was ligated. A polyethylene tubule was placed between the silk suture and myocardial tissue, the silk suture was […] to cause ischemia. Ligature was released 30 min later to establish an I/R model. Danshensu+I/R group (DLA+I/R group): a Danshensu aqueous solution (in normal saline, 1.25 mg/ml) was administrated at a dosage of 5 mg/kg BW/h by intravenous drip 20 min before the experiment and continued until the end of the entire experiment. Notoginsenoside R1+I/R group (R1+I/R group): a Notoginsenoside R1 aqueous solution (in normal saline, 1.25 mg/ml) was administrated at a dosage of 5 mg/kg BW/h by intravenous drip 20 min before the experiment and continued until the end of the entire experiment. […] Heart coronary vessel microcirculation had been recorded by a CD video recorder ([…], US). […] The diameter of the venules and RBC velocity under a same visual field were recorded before ischemia, 30 min after ischemia, 30 min after reperfusion and 60 min after reperfusion. Recordings were replayed at 25 frames·s^-1, diameters of the arterioles and the venules as well as RBC velocities were measured with Image-Pro Plus 5.0 software. RBC velocities in the rat's heart arterioles and venules were expressed as “mm/s”, and the diameters of the rat's heart arterioles and venules were expressed as “μm”.

[1] = 5 mg/kg BW/h intravenous drip, FIG. 2

Row | Structure (SMILES) | inhibitory effect on the decreased RBC velocity in the venules caused by I/R [1] | course of the inhibitory effect on decreased RBC velocity (5 mg/kg BW/h intravenous drip, until 60 min after reperfusion, FIG. 2) | amelioration of RBC velocity in the venules of the heart coronary vessels caused by I/R (summary) (rats, summary statement of the description)
1 | CC(C)=CCC[C@](C)(O[C@@H]1O[C@H](CO)[C@@H](O)[C@H](O)[C@H]1O)[C@H]1CC[C@]2(C)[C@@H]1[C@H](O)C[C@@H]1[C@@]3(C)CC[C@H](O)C(C)(C)[C@@H]3[C@@H](O[C@@H]3O[C@H](CO)[C@@H](O)[C@H](O)[C@H]3O[C@@H]3OC[C@@H](O)[C@H](O)[C@H]3O)C[C@]12C [Notoginsenoside R1] | does not display a significantly inhibitory effect | – | –
2 | O=C(O)C(O)Cc1ccc(O)c(O)c1 (stereo not shown) [Danshensu, (3,4-dihydroxyphenyl)lactic acid] | significantly inhibitory effect | does not further improved | transiently ameliorate
